Measured values as given in PMC5031577, “Preclinical evaluation of [^68Ga]NOTA-pentixafor for PET imaging of CXCR4 expression in vivo — a comparison to [^68Ga]pentixafor” (EJNMMI Research, 2016).
Read-outs that look alike come from different tables or passages of the source. Square brackets hold non-standard residues; d marks the D form. Side chains are listed from the residue outwards. Peptide text beside a SMILES is read from it. * marks the point of attachment. DOTA = O=C(O)CN1CCN(CC(=O)O)CCN(CC(=O)*)CCN(CC(=O)O)CC1; NOTA = O=C(O)CN1CCN(CC(=O)O)CCN(CC(=O)*)CC1; 2Nal = N[C@@H](Cc1ccc2ccccc2c1)C(=O)O; dNMeOrn = CN[C@H](CCCN)C(=O)O; 4Amb = NCc1ccc(C(=O)O)cc1

What was measured:
[1] = Determination of tracer lipophilicity (logP); assay type: physicochemical; details: determined as published (method ref 22)
Method: General procedures and syntheses of the peptides are described in a recently reported protocol. Determination of tracer lipophilicity and serum stability as well as in vitro studies were performed as recently published. ^68Ga-labeling of peptides was performed as described using a fully automated system (Scintomics GmbH); briefly, the ^68Ge/^68Ga generator eluate fractions (1.25 mL) were reacted with 5 nmol of peptide. The mixture was buffered with 0.6 mL HEPES (pH = 7.4) to a final pH of 3–4 and heated to 95 °C for 5 min. After purification via one Sep-Pak C8 light cartridge, the ethanolic product fraction was diluted with PBS and used as such for the experiments.

[2] = Biodistribution in Daudi lymphoma xenograft bearing SCID mice; assay type: in vivo, mouse; details: female, CB-17 SCID, mouse, iv, total radioactivity, mean ± SD
Method: (§1) For PET (n = 3) and biodistribution studies (n = 5), an average of 15.2 MBq [^68Ga]NOTA-pentixafor (100 μL in PBS, 145 pmol, 171 ng) with a specific activity (AS) of 104 GBq/μmol was injected intravenously into the tail vein of isofluorane anesthesized female Daudi lymphoma-bearing SCID mice. […] After static PET imaging for 15 min (Inveon Siemens μPET scanner), the mice were sacrificed (90 min p.i.), and tissues and organs of interest were dissected, weighed, and counted for radioactivity in a γ-counter. The percentage of injected dose per gram of tissue (% ID/g) was calculated; data are shown as mean ± SD.

[3] = tested on: Daudi xenograft bearing CB-17 SCID mice; assay: as above; assay type: in vivo, mouse; details: tracer only, i.v., 1.5 h p.i., mean ± SD
Method: as §1

[4] = design: method as in PMID 22045709; details: at 30 min p.i.; cited from earlier work
[5] = Metabolite analysis of mouse plasma after i.v. injection; assay type: in vivo; details: CB17 SCID mouse, 50 MBq i.v., plasma at 60 min p.i., RP-HPLC with γ-counter
Method: All animal studies were conducted in accordance with the German Animal Welfare Act (Deutsches Tierschutzgesetz, approval No. 55.2-1-54-2532-71-13). For metabolite analysis, 50 MBq of [^68Ga]NOTA-pentixafor in a total volume of 200 μL of PBS was injected into the tail vein of a CB17 SCID mouse; the animal was sacrificed at 1 h p.i. and blood was collected. After sample preparation, as described in [24], the plasma samples were analyzed by reversed phase (RP)-HPLC and eluate fractions were analyzed using a γ-counter.

CXCR4 = details: Jurkat T cells, [^125I]FC131 radioligand; natGa-complexed peptides and metal-free precursors; determined previously; cited from earlier work
Text: Table 1 Comparison of the lipophilicity and the in vitro CXCR4 targeting characteristics of [^68Ga]NOTA-pentixafor and [^68Ga]pentixafor | column: IC50 (nM)

[6] = adrenals, 15.2 MBq, tracer only, i.v., 1.5 h p.i., read-out: Adrenals uptake
[7] = heart, 15.2 MBq, tracer only, i.v., 1.5 h p.i., read-out: Heart uptake
[8] = intestine, 15.2 MBq, tracer only, i.v., 1.5 h p.i., read-out: Intestine uptake
[9] = kidney, 15.2 MBq, tracer only, i.v., 1.5 h p.i., read-out: Kidney uptake
[10] = liver, 15.2 MBq, tracer only, i.v., 1.5 h p.i., read-out: Liver uptake
[11] = lung, 15.2 MBq, tracer only, i.v., 1.5 h p.i., read-out: Lung uptake
[12] = muscle, 15.2 MBq, tracer only, i.v., 1.5 h p.i., read-out: Muscle uptake
[13] = pancreas, 15.2 MBq, tracer only, i.v., 1.5 h p.i., read-out: Pancreas uptake
[14] = spleen, 15.2 MBq, tracer only, i.v., 1.5 h p.i., read-out: Spleen uptake
[15] = stomach, 15.2 MBq, tracer only, i.v., 1.5 h p.i., read-out: Stomach uptake

Compound	logP [1]	tissue uptake at 1.5 h [2, 6] [%ID/g]	tissue uptake at 1.5 h [2, 7] [%ID/g]	tissue uptake at 1.5 h [2, 8] [%ID/g]	tissue uptake at 1.5 h [2, 9] [%ID/g]	tissue uptake at 1.5 h [2, 10] [%ID/g]	tissue uptake at 1.5 h [2, 11] [%ID/g]	tissue uptake at 1.5 h [2, 12] [%ID/g]	tissue uptake at 1.5 h [2, 13] [%ID/g]	tissue uptake at 1.5 h [2, 14] [%ID/g]	tissue uptake at 1.5 h [2, 15] [%ID/g]	further results
CN1C(=O)[C@@H](Cc2ccc(O)cc2)NC(=O)CNC(=O)[C@H](Cc2ccc3ccccc3c2)NC(=O)[C@H](CCCNC(=N)N)NC(=O)[C@H]1CCCNC(=O)c1ccc(CNC(=O)CN2CCN(CC(=O)O)CCN(CC(=O)O)CCN(CC(=O)O)CC2)cc1 [[^68Ga]pentixafor, metal not drawn] (cyclo([dY][dNMeOrn]([4Amb-DOTA])R[2Nal]G))	−2.90	3.68 ± 0.72	0.58 ± 0.17	0.7 ± 0.2	1.65 ± 0.91	2.05 ± 0.27	1.32 ± 0.29	0.19 ± 0.06	1.06 ± 0.22	0.3 ± 0.1	0.48 ± 0.08	Intestine uptake [3]: 0.67 ± 0.21 % ID/g; radiometabolites in mouse plasma (metabolic stability) [4]: complete absence of radiometabolites
CN1C(=O)[C@@H](Cc2ccc(O)cc2)NC(=O)CNC(=O)[C@H](Cc2ccc3ccccc3c2)NC(=O)[C@H](CCCNC(=N)N)NC(=O)[C@H]1CCCNC(=O)c1ccc(CNC(=O)CN2CCN(CC(=O)O)CCN(CC(=O)O)CC2)cc1 [[^68Ga]NOTA-pentixafor, metal not drawn] (cyclo([2Nal]G[dY][dNMeOrn]([4Amb-NOTA])R))	−2.36	0.52 ± 0.3	0.34 ± 0.19	1.89 ± 0.83	2.71 ± 1.06	2.3 ± 0.88	0.73 ± 0.25	0.13 ± 0.1	0.12 ± 0.05	0.44 ± 0.22	0.45 ± 0.21	radiometabolites in mouse plasma (metabolic stability) [5]: complete absence of radiometabolites; tissue uptake at 1.5 h ([2]; adrenals, co-injection of 50 μg AMD3100, n = 3, 1.5 h p.i., read-out: Adrenals uptake): 0.48 ± 0.15 %ID/g; tissue uptake at 1.5 h ([2]; blood, 15.2 MBq, tracer only, i.v., 1.5 h p.i., read-out: Blood uptake): 0.65 ± 0.41 %ID/g; tissue uptake at 1.5 h ([2]; blood, co-injection of 50 μg AMD3100, n = 3, 1.5 h p.i., read-out: Blood uptake): 0.62 ± 0.26 %ID/g; tissue uptake at 1.5 h ([2]; bone, 15.2 MBq, tracer only, i.v., 1.5 h p.i., read-out: Bone uptake): 0.25 ± 0.18 %ID/g; tissue uptake at 1.5 h ([2]; bone, co-injection of 50 μg AMD3100, n = 3, 1.5 h p.i., read-out: Bone uptake): 0.16 ± 0.07 %ID/g; tissue uptake at 1.5 h ([2]; gallbladder, 15.2 MBq, tracer only, i.v., 1.5 h p.i., read-out: Gallbladder uptake): 3.61 ± 3 %ID/g; tissue uptake at 1.5 h ([2]; gallbladder, co-injection of 50 μg AMD3100, n = 3, 1.5 h p.i., read-out: Gallbladder uptake): 5.14 ± 2.24 %ID/g; tissue uptake at 1.5 h ([2]; heart, co-injection of 50 μg AMD3100, n = 3, 1.5 h p.i., read-out: Heart uptake): 0.36 ± 0.14 %ID/g; tissue uptake at 1.5 h ([2]; intestine, co-injection of 50 μg AMD3100, n = 3, 1.5 h p.i., read-out: Intestine uptake): 3.97 ± 0.92 %ID/g; tissue uptake at 1.5 h ([2]; kidney, co-injection of 50 μg AMD3100, n = 3, 1.5 h p.i., read-out: Kidney uptake): 3.56 ± 1.03 %ID/g; tissue uptake at 1.5 h ([2]; liver, co-injection of 50 μg AMD3100, n = 3, 1.5 h p.i., read-out: Liver uptake): 2.02 ± 0.76 %ID/g; tissue uptake at 1.5 h ([2]; lung, co-injection of 50 μg AMD3100, n = 3, 1.5 h p.i., read-out: Lung uptake): 0.95 ± 0.38 %ID/g; tissue uptake at 1.5 h ([2]; muscle, co-injection of 50 μg AMD3100, n = 3, 1.5 h p.i., read-out: Muscle uptake): 0.13 ± 0.05 %ID/g; tissue uptake at 1.5 h ([2]; pancreas, co-injection of 50 μg AMD3100, n = 3, 1.5 h p.i., read-out: Pancreas uptake): 0.16 ± 0.05 %ID/g; tissue uptake at 1.5 h ([2]; spleen, co-injection of 50 μg AMD3100, n = 3, 1.5 h p.i., read-out: Spleen uptake): 0.54 ± 0.19 %ID/g; tissue uptake at 1.5 h ([2]; stomach, co-injection of 50 μg AMD3100, n = 3, 1.5 h p.i., read-out: Stomach uptake): 0.58 ± 0.24 %ID/g
Pentixafor												IC50 (CXCR4): 102 ± 17 nM
